Data taken from US9278936B2, “Crystalline forms of 1-(3-tert-butyl-1-p-tolyl-1H-pyrazol-5-yl)-3-(5-fluoro-2-(1-(2-hydroxyethyl)-1H-indazol-5-yloxy)benzyl)urea hydrochloride” (Array BioPharma Inc., priority 2012, dated 2016).

Columns and labels:
[1] = tested on: p38 MAPK; conditions: cited from earlier work
[2] = Aqueous solubility / BCS class; format: physicochemical
[3] = target: Tie2 protein kinase (Homo sapiens, UniProt Q02763); conditions: cited from earlier work
[4] = Pharmacokinetics, relative bioavailability and food effect in healthy subjects following single oral doses; format: in vivo, human; conditions: by 48 hours after dosing
Description: Formulations 1 and 2 as well as the control are summarized below.
This study design encompassed 3 parallel treatment cohorts of unique subjects evaluating the two formulations (12 subjects per cohort) and the PIC control (6 subjects) in a fasted or fed state, as shown in Table 12. A crossover food-effect assessment for the two formulations occurred with Groups 1 and 2 within Periods 1 and 2.
For each period, subjects were divided into 2 groups of equal size to evaluate any potential period effects on the food-effect assessment. Subjects fasted for a minimum of 8 hours the night before and 4 hours following dosing for the fasted assessment. Subjects consumed a slightly modified standard high-fat meal 30 minutes before and fasted for 4 hours after dosing for the fed portion of the food-effect assessment. Following a 7-day washout after the initial dose, subjects being dosed with the novel formulations returned to the clinic for the Period 2 single dose in the fasted state or following the consumption of a high-fat meal, as appropriate. Within each cohort and period, all subjects were treated on the same day. The same subjects were utilized for Cohort 1—Periods 1 and 2, and likewise for Cohort 2—Periods 1 and 2.
Both days were considered single dose for analysis purposes. Pharmacokinetic parameters calculated included the following: […]

Tie2 protein kinase, sequence (Q02763 23-1124): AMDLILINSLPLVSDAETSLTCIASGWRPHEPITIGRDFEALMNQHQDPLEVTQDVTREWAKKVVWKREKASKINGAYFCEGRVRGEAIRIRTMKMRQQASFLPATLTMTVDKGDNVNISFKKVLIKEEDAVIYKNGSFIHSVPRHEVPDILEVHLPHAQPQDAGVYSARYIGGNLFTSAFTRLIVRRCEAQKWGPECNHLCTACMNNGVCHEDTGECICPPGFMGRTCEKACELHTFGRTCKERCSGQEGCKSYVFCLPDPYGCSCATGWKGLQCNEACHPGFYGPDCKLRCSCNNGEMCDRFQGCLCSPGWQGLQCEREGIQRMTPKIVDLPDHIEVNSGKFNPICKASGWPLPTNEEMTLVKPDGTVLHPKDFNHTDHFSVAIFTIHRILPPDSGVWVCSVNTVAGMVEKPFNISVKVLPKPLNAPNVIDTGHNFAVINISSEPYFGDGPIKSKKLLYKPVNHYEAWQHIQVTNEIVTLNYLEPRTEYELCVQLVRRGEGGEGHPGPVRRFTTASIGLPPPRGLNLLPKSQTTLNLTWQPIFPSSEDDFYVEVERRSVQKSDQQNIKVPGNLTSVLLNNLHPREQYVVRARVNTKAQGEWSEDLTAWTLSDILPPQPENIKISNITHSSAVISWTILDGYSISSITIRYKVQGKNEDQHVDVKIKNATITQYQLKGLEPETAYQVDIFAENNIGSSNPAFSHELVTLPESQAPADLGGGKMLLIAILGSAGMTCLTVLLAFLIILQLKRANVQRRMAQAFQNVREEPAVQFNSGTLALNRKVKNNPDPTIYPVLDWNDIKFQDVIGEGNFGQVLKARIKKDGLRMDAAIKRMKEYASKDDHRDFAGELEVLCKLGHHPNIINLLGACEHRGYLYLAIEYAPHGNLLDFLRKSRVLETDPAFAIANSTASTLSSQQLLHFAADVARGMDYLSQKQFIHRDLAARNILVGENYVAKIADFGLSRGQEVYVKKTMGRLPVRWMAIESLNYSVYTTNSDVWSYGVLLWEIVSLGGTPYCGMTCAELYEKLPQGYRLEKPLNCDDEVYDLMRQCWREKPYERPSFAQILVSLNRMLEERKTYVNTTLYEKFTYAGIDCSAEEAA

In the case of `Cc1ccc(-n2nc(C(C)(C)C)cc2NC(=O)NCc2cc(F)ccc2Oc2ccc3c(cnn3CCO)c2)cc1` [ARRY-614, 1-(3-Tert-butyl-1-p-tolyl-1H-pyrazol-5-yl)-3-(5-fluoro-2-(1-(2-hydroxyethyl)-1H-indazol-5-yloxy)benzyl)urea], the “inhibitory activity against p38 MAPK” value [1] is given as “potent inhibitory activity”, the BCS class [2] is given as “Class II” and the solubility ([2]; aqueous media, aqueous buffer, across the typical physiological pH range of 2-8) is given as < 10 µg/mL. For the same compound, the “inhibitory activity against Tie2 protein kinase” value [3] was “potent inhibitory activity” and the “mean plasma concentrations relative to the mean peak plasma concentrations” value [4] was “less than 10%”.
